Molecular target: ARMC12 (Homo sapiens, UniProt Q5T9G4)
Conditions: recombinant wild-type protein; 20 uM (Figure 4F legend; b48 prints 20 mM); 4 °C, 2 h; compound covalently conjugated to beads; site at R320

Sequence of ARMC12 (Q5T9G4 1-367 isoform Q5T9G4-2): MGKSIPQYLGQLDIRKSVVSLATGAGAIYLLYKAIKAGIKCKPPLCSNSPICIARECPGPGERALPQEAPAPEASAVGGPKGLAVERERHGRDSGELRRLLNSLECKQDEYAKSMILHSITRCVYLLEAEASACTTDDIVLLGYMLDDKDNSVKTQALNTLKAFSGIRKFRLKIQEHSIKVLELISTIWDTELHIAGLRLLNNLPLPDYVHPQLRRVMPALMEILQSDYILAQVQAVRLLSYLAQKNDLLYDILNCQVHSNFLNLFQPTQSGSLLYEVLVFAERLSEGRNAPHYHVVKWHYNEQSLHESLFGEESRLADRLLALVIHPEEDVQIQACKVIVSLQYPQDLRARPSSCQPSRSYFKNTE

Structure (SMILES): Clc1ccc(C(Cn2ccnc2)OCc2ccsc2Cl)c(Cl)c1 (stereo not shown) [TCZ, tioconazole]
- affinity purification on compound-conjugated NHS beads, western blot: TCZ directly interacted with recombinant wild-type ARMC12 protein rather than its mutant
